Values quoted from earlier work as cited in patent publication US20020054921A1, “Use of phyllanthus components for the treatment or prophylaxis of infections triggered by flavivirdae” (priority 2000, published 2002).

How the values were obtained:
[1] = test system: Ca^2+-dependent protein kinase of the wheat embryo; details: wheat embryo Ca^2+-dependent protein kinase
[2] = test system: Ca^2+ and phospholipid-dependent protein kinase C (PKC) of the rat brain
[3] = biological target: T1, cAMP-dependent protein kinase of the rat liver (Rattus norvegicus, UniProt P27791)
T1 construct: the cAMP-dependent protein kinase of the rat liver; host or cells: rat liver

Staphylococcus aureus = details: 0.1 ml added; extract 50 mg/ml, streptomycin 10 mg/ml
Bacillus subtilis = details: 0.1 ml added; extract 50 mg/ml, streptomycin 10 mg/ml

| Molecule | inhibition of protein kinase [1] | inhibition of protein kinase [2] | inhibition of protein kinase [3] | inhibition zone (Staphylococcus aureus) | inhibition zone (Bacillus subtilis) |
| --- | --- | --- | --- | --- | --- |
| O=C1OC2C3OC(=O)C4=CC(=O)C5(O)Oc6c(O)c(O)cc(c6C4C5(O)O)C(=O)OC2C(OC(=O)c2cc(O)c(O)c(O)c2)OC3COC(=O)c2cc(O)c(O)c3c2C2C1=CC(=O)C(O)(O3)C2(O)O (centres unmarked) [amariin] | most effective | most effective | most effective |  |  |
| [H]/N=C(/N)N[C@H]1[C@H](O)[C@@H](O)[C@H](O[C@@H]2O[C@@H](C)[C@](O)(C=O)[C@H]2O[C@@H]2O[C@@H](CO)[C@H](O)[C@@H](O)[C@@H]2NC)[C@@H](N/C(N)=N\[H])[C@@H]1O [streptomycin] |  |  |  | 35 mm | 35 mm |
| geraiin | most effective | most effective | most effective |  |  |
